Results on 14 molecules are retold here after PubChem BioAssay AID212 (DTP/NCI, 2004).

Several values for one entry are separate records, joined by “and”; a condition that tells them apart may be missing. Equal values may be shown once. Results filed as inconclusive are left out.

The subject of this experiment is BDF1 mice, colon carcinoma 38 sc, T/C %. Description: NCI In Vivo Anticancer Drug Screen. Data for tumor model Colon Carcinoma 38 (subcutaneous) in B6D2F1 (BDF1) mice. As to conditions: endpoint: median tumor weight (est.), higher = larger tumour. A digest of the protocol: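 Transplantable tumor in mice; compound-treated vs vehicle-dosed controls. Measured survival or tumor size; value = T ÷ C.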

Where [1] appears, read: dose: 25.0 mg/kg/injection, schedule: Q07DX002 (ip), vehicle: Klucel (hydroxypropylcellulose) (HPC).
[2] abbreviates: dose: 50.0 mg/kg/injection, schedule: Q07DX002 (ip), vehicle: Klucel (hydroxypropylcellulose) (HPC).
Setting [3] is: dose: 100.0 mg/kg/injection, schedule: Q07DX002 (ip), vehicle: Klucel (hydroxypropylcellulose) (HPC).
Where [4] appears, read: dose: 200.0 mg/kg/injection, schedule: Q07DX002 (ip), vehicle: Klucel (hydroxypropylcellulose) (HPC).
Setting [5] is: dose: 400.0 mg/kg/injection, schedule: Q07DX002 (ip), vehicle: Klucel (hydroxypropylcellulose) (HPC).
The mark [6] stands for this setting: dose: 800.0 mg/kg/injection, schedule: Q07DX002 (ip), vehicle: Klucel (hydroxypropylcellulose) (HPC).
Where [7] appears, read: dose: 25.0 mg/kg/injection, schedule: Q07DX003 (ip), vehicle: saline.
Setting [8] is: dose: 50.0 mg/kg/injection, schedule: Q07DX002 (ip), vehicle: saline with Tween-80.
The mark [9] stands for this setting: dose: 200.0 mg/kg/injection, schedule: Q07DX002 (ip), vehicle: saline with Tween-80.
Setting [10] is: dose: 400.0 mg/kg/injection, schedule: Q07DX002 (ip), vehicle: saline with Tween-80.
The mark [11] stands for this setting: dose: 2.0 mg/kg/injection, schedule: Q07DX002 (ip), vehicle: saline.

As to `CC(C)CCC[C@@H](C)[C@H]1CC[C@H]2[C@@H]3CC=C4C[C@@H](OC(=O)Cc5ccc(N(CCCl)CCCl)cc5)CC[C@]4(C)[C@H]3CC[C@]12C`, the T/C reads like this: under setting [1], 85 % of control; under setting [2], 111 % of control; under setting [3], 103 % of control; under setting [4], 103 % of control; under setting [5], 77 % of control; under setting [6], 82 % of control.
As to `CCOC(=O)c1c[nH]c2oc(/C=N/N3CC(CN4CCOCC4)OC3=O)cc2c1=O` (configuration not stated), the T/C under setting [7] was 116 % of control and 120 % of control; the T/C (dose: 100.0 mg/kg/injection, schedule: Q07DX003 (ip), vehicle: saline) was 93 % of control and 102 % of control; the T/C (dose: 150.0 mg/kg/injection, schedule: Q07DX002 (ip), vehicle: other) was 92 % of control; the T/C (dose: 200.0 mg/kg/injection, schedule: Q07DX003 (ip), vehicle: saline) was 108 % of control and 106 % of control; the T/C (dose: 300.0 mg/kg/injection, schedule: Q07DX002 (ip), vehicle: other) was 59 % of control; the T/C (dose: 600.0 mg/kg/injection, schedule: Q07DX002 (ip), vehicle: other) is 59 % of control. In addition, the T/C (dose: 900.0 mg/kg/injection, schedule: Q07DX002 (ip), vehicle: other) is 34 % of control.
With `C=C(C)C(=NC(C)(C)C)Nc1ccccc1`, the T/C reads like this: (dose: 12.5 mg/kg/injection, schedule: Q07DX002 (ip), vehicle: saline with Tween-80) 100 % of control; (dose: 25.0 mg/kg/injection, schedule: Q07DX002 (ip), vehicle: saline with Tween-80) 101 % of control; under setting [8], 103 % of control; under setting [9], 108 % of control; under setting [10], 100 % of control.
Consider `COc1cc2cc[n+](C)c(Cc3ccccc3)c2cc1OC`, for which the T/C runs as follows: (dose: 12.5 mg/kg/injection, schedule: Q07DX003 (ip), vehicle: saline) 113 % of control; under setting [7], 84 % of control; (dose: 50.0 mg/kg/injection, schedule: Q07DX003 (ip), vehicle: saline) 80 % of control.
With `C[C@]12CCC(=O)C=C1CC[C@@H]1[C@@H]2[C@@H](O)C[C@@]2(C)[C@H]1CC[C@]2(O)C(=O)CO`, the T/C runs as follows: (dose: 40.0 mg/kg/injection, schedule: Q07DX003 (ip), vehicle: Klucel (hydroxypropylcellulose) (HPC)) 73 % of control; (dose: 80.0 mg/kg/injection, schedule: Q07DX003 (ip), vehicle: Klucel (hydroxypropylcellulose) (HPC)) 76 % of control; (dose: 160.0 mg/kg/injection, schedule: Q07DX003 (ip), vehicle: Klucel (hydroxypropylcellulose) (HPC)) 123 % of control and 104 % of control; under setting [4], 63 % of control; (dose: 320.0 mg/kg/injection, schedule: Q07DX003 (ip), vehicle: Klucel (hydroxypropylcellulose) (HPC)) 118 % of control; under setting [5], 74 % of control. The T/C (dose: 640.0 mg/kg/injection, schedule: Q07DX003 (ip), vehicle: Klucel (hydroxypropylcellulose) (HPC)) was 79 % of control and 103 % of control; the T/C under setting [6] is 93 % of control; the T/C (dose: 800.0 mg/kg/injection, schedule: Q07DX003 (ip), vehicle: Klucel (hydroxypropylcellulose) (HPC)) is 57 % of control; the T/C (dose: 1200.0 mg/kg/injection, schedule: Q07DX002 (ip), vehicle: Klucel (hydroxypropylcellulose) (HPC)) was 70 % of control.
With `Cc1cc2c(=O)c3ccccc3oc2c(C(=O)O)c1C`, the T/C was 69 % of control (dose: 50.0 mg/kg/injection, schedule: Q07DX002 (ip), vehicle: sodium bicarbonate); 42 % of control (dose: 100.0 mg/kg/injection, schedule: Q07DX002 (ip), vehicle: sodium bicarbonate); 37 % of control (dose: 200.0 mg/kg/injection, schedule: Q07DX002 (ip), vehicle: sodium bicarbonate); 44 % of control (dose: 400.0 mg/kg/injection, schedule: Q07DX002 (ip), vehicle: sodium bicarbonate).
In the case of `CC(C)(O)/C=C/C(=O)[C@](C)(O)[C@H]1[C@H](O)C[C@@]2(C)[C@@H]3CC=C4[C@@H](C[C@H](O)C(=O)C4(C)C)[C@]3(C)C(=O)C[C@]12C`, the T/C was 95 % of control (dose: 0.25 mg/kg/injection, schedule: Q07DX002 (ip), vehicle: saline + Tween-80 + alcohol); 106 % of control (dose: 0.5 mg/kg/injection, schedule: Q07DX002 (ip), vehicle: saline + Tween-80 + alcohol); 65 % of control (dose: 1.0 mg/kg/injection, schedule: Q07DX002 (ip), vehicle: saline + Tween-80 + alcohol).
Take `CC1OC1C(=O)C1(O)C(C)C(O)C23OC2(C(O)c2c(O)cccc2C3=O)C1O` (configuration not stated): the T/C (dose: 2.0 mg/kg/injection, schedule: Q07DX002 (ip), vehicle: Klucel (hydroxypropylcellulose) (HPC)) is 95 % of control and 101 % of control; the T/C (dose: 4.0 mg/kg/injection, schedule: Q07DX002 (ip), vehicle: Klucel (hydroxypropylcellulose) (HPC)) was 77 % of control and 91 % of control; the T/C (dose: 8.0 mg/kg/injection, schedule: Q07DX002 (ip), vehicle: Klucel (hydroxypropylcellulose) (HPC)) was 95 % of control and 102 % of control; the T/C (dose: 32.0 mg/kg/injection, schedule: Q07DX002 (ip), vehicle: Klucel (hydroxypropylcellulose) (HPC)) is 98 % of control; the T/C (dose: 64.0 mg/kg/injection, schedule: Q07DX002 (ip), vehicle: Klucel (hydroxypropylcellulose) (HPC)) is 124 % of control.
Turning to `C[C@@H]1C(=O)C[C@H]2C(C)(C)CCC[C@]2(C)[C@@]1(O)CCc1ccoc1`, the T/C is 74 % of control under setting [2], 84 % of control under setting [4] and 67 % of control under setting [5].
In the case of `COC12C(COC(N)=O)C3=C(C(=O)C(C)=C(N)C3=O)N1CC1C2N1C` (configuration not stated), the T/C runs as follows: under setting [11], 93 % of control; (dose: 4.0 mg/kg/injection, schedule: Q07DX002 (ip), vehicle: saline) 87 % of control; (dose: 8.0 mg/kg/injection, schedule: Q07DX002 (ip), vehicle: saline) 100 % of control; (dose: 16.0 mg/kg/injection, schedule: Q07DX002 (ip), vehicle: saline) 55 % of control; (dose: 32.0 mg/kg/injection, schedule: Q07DX002 (ip), vehicle: saline) 11 % of control; (dose: 64.0 mg/kg/injection, schedule: Q07DX002 (ip), vehicle: saline) 12 % of control.
Turning to `N#Cc1cn(C2OC(CO)C(O)C2O)c2ncnc(N)c12` (configuration not stated), the T/C by setting is: (dose: 0.12 mg/kg/injection, schedule: Q07DX002 (ip), vehicle: saline) 91 % of control; (dose: 0.25 mg/kg/injection, schedule: Q07DX002 (ip), vehicle: saline) 77 % of control; (dose: 1.0 mg/kg/injection, schedule: Q07DX002 (ip), vehicle: saline) 86 % of control; under setting [11], 59 % of control.
Take `CCN(CC)CCCC(C)Nc1c2ccc(Cl)cc2nc2ccc(OC)cc12` (configuration not stated): the T/C is 96 % of control and 103 % of control (dose: 16.0 mg/kg/injection, schedule: Q07DX003 (ip), vehicle: suspension in saline); 95 % of control and 106 % of control (dose: 32.0 mg/kg/injection, schedule: Q07DX003 (ip), vehicle: suspension in saline); 53 % of control (dose: 64.0 mg/kg/injection, schedule: Q07DX003 (ip), vehicle: suspension in saline); 79 % of control (dose: 128.0 mg/kg/injection, schedule: Q07DX003 (ip), vehicle: suspension in saline).
For `CCCCCCC(=O)/C=C/c1cccc(OCOCC)c1`, the T/C is, setting by setting: under setting [8], 122 % of control; (dose: 100.0 mg/kg/injection, schedule: Q07DX002 (ip), vehicle: saline with Tween-80) 103 % of control; under setting [9], 104 % of control; under setting [10], 89 % of control.
As to `N/C(=N\OC(=O)Nc1ccc(CSc2ccc(Cl)cc2)o1)c1ccccn1`, the T/C under setting [1] was 89 % of control, the T/C under setting [2] was 75 % of control and the T/C under setting [3] was 90 % of control.
